{
  "source": "patent US12605384B2",
  "about": "“Uses” (INTRA-CELLULAR THERAPIES, INC., priority 2018, dated 2026)",
  "key": {"myocyte cAMP": {"tested_on": "myocyte cAMP", "assay": "Whole cell cAMP in rabbit myocytes", "format": "cell-based", "details": "for cAMP: added to Fsk; for whole cell cAMP: alone or combined with Iso", "text": "This is consistent with prior studies showing locally generated cAMP from β-AR and its modulation by PDE3 occur in local subcellular domains that are not easily detected in whole cell lysates32."}, "plasma cAMP and cGMP": {"tested_on": "plasma cAMP and cGMP", "assay": "Plasma cAMP and cGMP by ELISA in dogs", "format": "in vivo, dog", "details": "for plasma cGMP: normal and HF models, all conditions", "description": "Blood plasma is obtained from these animals, and cAMP and cGMP are assayed by ELISA."}, "[1]": {"assay": "Plasma Compound 1 levels in dogs (LC/MS-MS)", "format": "in vivo, dog", "details": "normal dogs, 0.1 mg/kg i.v.", "description": "(§1) Dogs are studied in the conscious state before and after inducing dilated cardiomyopathy by tachypacing for two weeks at 200 bpm.\n(§2) The study employs two doses, 0.01 and 0.1 mg/kg, the latter administered 30 minutes after the first.\nIntravenous blood is placed in K2EDTA tubes, centrifuged at 2,000 g for 15 min, plasma decanted, and stored frozen. Compound 1 levels are assessed by a rapid, sensitive liquid chromatography-tandem mass spectrometric (LC/MS-MS) method.\nThe mobile phase consists of a gradient of 60-100% methanol over 4.5 minutes in 5 mM ammonium bicarbonate with 0.2% NH3H2O, pumped at a flow rate of 0.8 mL/min. Analysis time is 4.5 min and both the analyte and internal standard eluted around 2.0 min. Multiple reactions monitoring (MRM) mode is used to detect Compound 1. MS is operated in the positive ion detection mode. […] Calibration curves are linear from 0.02-500 ng/mL in dog plasma sample matrices. The lower limit of quantification (LLOQ) for plasma was 0.02 ng/mL."}, "[2]": {"assay": "Plasma pharmacokinetics in heart failure patients", "format": "in vivo, human", "details": "10, 30, 90 mg", "description": "(§3) A further group was administered placebo.\n(§4) Hemodynamic monitoring began 30-60 minutes prior to the pre-dose echocardiogram through to 5-6 hours post-dose."}, "[3]": {"tested_on": "normal and failing canine hearts", "assay": "Conscious pressure-volume hemodynamic analysis in dogs", "format": "in vivo, dog", "description": "as §1, §2\nLoad insensitive indexes of contractility (dP/dtmax/IP and PRSW) increased."}, "[4]": {"tested_on": "New Zealand White rabbits", "assay": "Pressure-volume hemodynamics in anesthetized rabbits", "format": "in vivo, rabbit", "details": "for hemodynamic effects: atrially paced", "text": "Cyclic AMP is generated largely by transmembrane adenylyl cyclases activated via stimulatory G protein (Gs), with β-adrenergic, adenosine (primarily […]), glucagon, prostanoids, histamine, and serotonin all coupling to Gs in cardiomyocytes. The present studies focus on beta-adrenergic and adenosine receptors, and for the latter, concentrated on the A2B receptor, which has been reported to directly stimulate cAMP-dependent contractility. […] Relaxation changes are also modest with LV preload (end-diastolic and volume) unaltered; however, the combined vasodilator-inotropic response doubled ventricular/arterial coupling ratio, Ees/Ea.\nNew Zealand White rabbits (male, 2-3 kg) are sedated with 35 mg/kg ketamine and 5 mg/kg xylazine, intubated and ventilated (Model 683, Harvard Apparatus, Holliston, MA), with anesthesia maintained with isoflurane inhalation (1-2%). A pressure-volume catheter (SPR-894, Millar, Inc., Houston, TX) is inserted via the common carotid artery and advanced to the LV apex, and a 2-Fr pacing catheter is positioned in the right atrium via the right jugular vein to provide atrial pacing. […] The parallel conductance is determined by the hypertonic saline injection method. Rabbits are infused with 6% hetastarch in saline during the procedure to stabilize arterial pressure."}, "[5]": {"tested_on": "patients with stable chronic systolic HF", "assay": "Phase Ib/IIa single ascending dose study in human heart failure", "format": "in vivo", "description": "as §3, §4\nSupine and orthostatic blood pressure and heart rate were recorded pre-dose, as well as 60 and 40 minutes post-dose. Continuous electrocardiographic monitoring starting up to 30-60 minutes prior to the pre-dose echocardiogram through to 5-6 hours post-dose including measurement of ectopic arrhythmias pre- and post-dose."}, "[6]": {"tested_on": "normal adult rabbit myocytes", "assay": "Contraction and calcium transients in isolated rabbit cardiomyocytes", "format": "cell-based", "set-up": "effect on contraction and calcium transients: dose or concentration left out as unconfirmed", "description": "To test whether PDE1 inhibition directly impacts cardiomyocyte contraction and calcium transients, studies are carried out on normal adult rabbit myocytes. […] As PDE1 requires sufficient cAMP and Ca^2+ to be impactful, a dose response was performed to the adenylate cyclase activator, forskolin (FSK) to determine the lowest dose producing a modest but significant inotropic effect (1 μM).\nRabbit myocytes were isolated to determine the effect of PDE1 inhibition on cardiomyocyte contraction and whole cell Ca2+ transients, and to compare the results to those with a PDE3 inhibitor, cilostamide (Cil, 1 μM)."}, "[7]": {"details": "continuous ECG monitoring to 5-6 hours post-dose"}, "[8]": {"details": "Compound 1 added after FSK 1 μM"}},
  "note": "Where a name gives a salt, the structure may show the parent alone.",
  "data": [
    {"compound": "CN1C(=O)c2c(nn(Cc3ccc(-c4cccc(F)n4)cc3)c2Nc2ccccc2)N2C1=N[C@@H]1CCC[C@@H]12", "note": "[Compound 1, (6aR,9aS)-2-(4-(6-fluoropyridin-2-yl)benzyl)-5-methyl-3-(phenyl-amino)-5,6a,7,8,9,9a-hexahydrocyclopenta-[4,5]imidazo[1,2-a]pyrazolo[4,3-e]pyrimidin-4-(2H)-one monophosphate]", "values": [
      {"measurement": "cAMP change as share of the maximal change with IBMX added to Fsk", "setting": "myocyte cAMP; Compound 1 added to Fsk", "result": "about half"},
      {"measurement": "cAMP", "setting": "myocyte cAMP", "result": "substantially increased by adding Compound 1"},
      {"measurement": "plasma cAMP", "setting": "plasma cAMP and cGMP; HF dogs, combination of dobutamine and Compound 1", "result": "significantly higher"},
      {"measurement": "plasma cGMP", "setting": "plasma cAMP and cGMP", "result": "remains unchanged"},
      {"measurement": "time of peak plasma concentration", "setting": "[1]", "result": "within minutes"},
      {"measurement": "area under curve", "setting": "[2]", "result": "increasing with dose escalation"},
      {"measurement": "hemodynamic responses", "setting": "[3]; 0.1 mg/kg i.v.", "result": "positive chronotropic, inotropic, lusitropic, and vasodilator responses"},
      {"measurement": "inotropy, lusitropy and vasodilation", "setting": "[3]; i.v., heart failure dogs", "result": "remained significantly improved"},
      {"measurement": "LV preload", "setting": "[4]; 0.1 mg/kg i.v. bolus, alone", "result": "unaltered"},
      {"measurement": "cardiac output", "setting": "[4]; 0.1 mg/kg i.v. bolus, alone", "result": "increases cardiac output"},
      {"measurement": "heart rate", "setting": "[4]; 0.1 mg/kg i.v. bolus, alone", "result": "modestly elevated heart rate"},
      {"measurement": "relaxation changes", "setting": "[4]; 0.1 mg/kg i.v. bolus, alone", "result": "modest"},
      {"measurement": "systemic resistance", "setting": "[4]; 0.1 mg/kg i.v. bolus, alone", "result": "lowered systemic resistance"},
      {"measurement": "systolic pressure", "setting": "[4]; 0.1 mg/kg i.v. bolus, alone", "result": "no change in systolic pressure"},
      {"measurement": "contractile and vasodilation effects", "setting": "[4]; after esmolol", "result": "remain intact"},
      {"measurement": "heart rate", "setting": "[4]; after esmolol", "result": "no longer increases HR"},
      {"measurement": "hemodynamic responses", "setting": "[4]; atrially paced at ~20% above sinus node rate", "result": "nearly identical responses"},
      {"measurement": "hemodynamic effects", "setting": "[4]; with MRS-1754", "result": "fully blocked by MRS-1754"},
      {"measurement": "hemodynamic effects", "setting": "[4]; with esmolol", "result": "unaltered by esmolol"},
      {"measurement": "cardiovascular responses to Compound 1 (heart rate, contractility, vasodilation)", "setting": "[4]; with A2BR blocker MRS-1754", "result": "eliminated all of the cardiovascular responses"},
      {"measurement": "systemic vascular resistance", "setting": "[5]; 30 mg", "result": "greatest decrease"},
      {"measurement": "effective arterial elastance (Ea)", "setting": "[5]; 30 mg and 90 mg", "result": "decreased"},
      {"measurement": "systemic vascular resistance", "setting": "[5]; all cohorts (10, 30, 90 mg single oral dose)", "result": "significantly decrease systemic vascular resistance"},
      {"measurement": "mean arterial blood pressure", "setting": "[5]; all dose amounts, versus placebo", "result": "decrease mean arterial blood pressure versus placebo"},
      {"measurement": "atrial fibrillation or atrial flutter", "setting": "[5]; [7]", "result": "none of the patients developed atrial fibrillation or atrial flutter"},
      {"measurement": "sustained supraventricular or ventricular tachycardia", "setting": "[5]; [7]", "result": "no patient developed sustained supraventricular or ventricular tachycardia"},
      {"measurement": "ventricular proarrhythmia", "setting": "[5]; [7]", "result": "no evidence of ventricular proarrhythmia"},
      {"measurement": "safety and tolerability", "setting": "[5]; patients with systolic heart failure (HFrEF)", "result": "safe and well tolerated"},
      {"measurement": "blood pressures and heart rates", "setting": "[5]; throughout the testing period", "result": "remained stable"},
      {"measurement": "percent sarcomere shortening, peak-Ca2+ transients and decay kinetics", "setting": "[6]; Compound 1 1 μM alone", "result": "not observed"},
      {"measurement": "rise in sarcomere shortening versus time-control", "setting": "[6]; Compound 1+FSK vs FSK for identical duration", "result": "exceeds that with FSK alone"},
      {"measurement": "peak calcium transient", "setting": "[6]; [8]", "result": "remains unaltered"},
      {"measurement": "shortening and relaxation/calcium decay rates", "setting": "[6]; [8]", "result": "significantly increases shortening and relaxation/calcium decay rates"},
      {"measurement": "effect on contraction and calcium transients", "setting": "[6]; Compound 1 alone", "result": "no effect"},
      {"measurement": "Ca2+ transient decay", "setting": "[6]; added to Fsk 1 μM", "result": "enhanced the Ca2+ decay rate similarly to Cil"},
      {"measurement": "peak Ca2+ transient", "setting": "[6]; added to Fsk 1 μM", "result": "no corresponding increase in peak Ca2+ transient"},
      {"measurement": "sarcomere shortening", "setting": "[6]; added to Fsk 1 μM", "result": "rose as with Cil"},
      {"measurement": "peak-Ca2+", "setting": "[6]; added to Iso", "result": "no longer significantly different from pre-Iso baseline"},
      {"measurement": "sarcomere shortening", "setting": "[6]; added to Iso", "result": "did not change further"}
    ]},
    {"compound": "CC(C)Cn1c(=O)n(C)c(=O)c2[nH]cnc21", "note": "[IBMX, reference compound]", "values": [
      {"measurement": "peak calcium transients", "setting": "[6]; IBMX 100 μM", "result": "did not alter peak calcium transients"},
      {"measurement": "shortening and contraction/calcium decay rates", "setting": "[6]; IBMX 100 μM", "result": "increased shortening and contraction/calcium decay rates"}
    ]},
    {"compound": "CCCn1c(=O)c2[nH]c(-c3ccc(OCC(=O)Nc4ccc(C#N)cc4)cc3)nc2n(CCC)c1=O", "note": "[MRS-1754, reference compound]", "values": [
      {"measurement": "impact of inhibitor pre-treatment alone on cardiovascular hemodynamics", "setting": "[4]", "result": "Neither inhibitor pre-treatment alone has a significant impact"}
    ]},
    {"compound": "CN(C(=O)CCCOc1ccc2[nH]c(=O)ccc2c1)C1CCCCC1", "note": "[cilostamide, reference compound]", "values": [
      {"measurement": "cAMP", "setting": "myocyte cAMP", "result": "unaltered by addition of Cil"},
      {"measurement": "whole cell cAMP", "setting": "myocyte cAMP", "result": "did not measurably increase whole cell cAMP"},
      {"measurement": "percent sarcomere shortening, peak-Ca2+ transients and decay kinetics", "setting": "[6]; Cil 1 μM alone", "result": "rose and their decay kinetics accelerated"},
      {"measurement": "Ca2+ transient decay", "setting": "[6]; added to Fsk 1 μM", "result": "faster decay of the Ca2+ transient"},
      {"measurement": "peak Ca2+ transient", "setting": "[6]; added to Fsk 1 μM", "result": "increase"},
      {"measurement": "sarcomere shortening", "setting": "[6]; added to Fsk 1 μM", "result": "increase in sarcomere shortening"},
      {"measurement": "peak-Ca2+", "setting": "[6]; added to Iso", "result": "remained elevated over baseline"},
      {"measurement": "sarcomere shortening", "setting": "[6]; added to Iso", "result": "further increased sarcomere shortening"}
    ]},
    {"compound": "CC(CCc1ccc(O)cc1)NCCc1ccc(O)c(O)c1", "note": "(stereo not drawn) [dobutamine, reference compound]", "values": [
      {"measurement": "plasma cGMP", "setting": "plasma cAMP and cGMP", "result": "remains unchanged"},
      {"measurement": "PV loop area (stroke work) and contractility", "setting": "[3]; dobutamine 10 μg/kg/min alone", "result": "increased PV loop area"}
    ]},
    {"compound": "COC(=O)CCc1ccc(OCC(O)CNC(C)C)cc1", "note": "(stereo not drawn) [esmolol, esmolol HCl, reference compound]", "values": [
      {"measurement": "cardiac responses to 10 μg/kg/min dobutamine", "setting": "[4]; esmolol dose as used", "result": "effectively blocked cardiac responses"},
      {"measurement": "impact of inhibitor pre-treatment alone on cardiovascular hemodynamics", "setting": "[4]", "result": "Neither inhibitor pre-treatment alone has a significant impact"}
    ]},
    {"compound": "CC(C)NCC(O)c1ccc(O)c(O)c1", "note": "(stereo not drawn) [isoproterenol, reference compound]", "values": [
      {"measurement": "whole cell cAMP", "setting": "myocyte cAMP", "result": "did not measurably increase whole cell cAMP"},
      {"measurement": "sarcomere shortening and peak Ca2+", "setting": "[6]; isoproterenol 50 nM", "result": "increases both sarcomere shortening and peak Ca^2+"},
      {"measurement": "sarcomere shortening, peak-Ca2+ and relaxation times", "setting": "[6]; non-saturating dose of isoproterenol", "result": "increased sarcomere shortening and peak-Ca^2+, and quickened relaxation times"}
    ]}
  ]
}
